From US6664231B1, “Anti-fungal peptides” (priority 1993, dated 2003)
Square brackets hold non-standard residues; d marks the D form. Peptide text beside a SMILES is read from it. Phe(4-NH2) = Nc1ccc(C[C@H](N)C(=O)O)cc1; 1Nal = N[C@@H](Cc1cccc2ccccc12)C(=O)O; Cha = N[C@@H](CC1CCCCC1)C(=O)O; GABA = NCCCC(=O)O

System: C. albicans (CA-1, Strain SLU-1)
Test: Radial diffusion assay
Assay type: cell-based, Candida albicans
Conditions: crude peptide; nanomoles required to achieve a net 30 mm^2 zone (log titration curve)
Procedure: In the radial diffusion assay procedures, the CA-1 cultures and peptide solutions were prepared as in the broth assay procedure described above. Ten mL of molten underlayer agarose comprising 3% Sabouraud Dextrose broth, 1% agarose (Pharmacia, Piscataway, N.J.), 0.02% Tween 20, and 10 mM sodium phosphate at pH 7.4, was added to polystyrene tubes and maintained in a 56° C. water bath until the addition of yeast. Tubes were cooled to approximately 45° C., yeast were added to give a final concentration of 1×10^6 CFU/mL, and the tubes were mixed again by inverting. The contents were poured into level square petri dishes and distributed evenly. […] A series of wells were punched into the hardened agarose using a sterile 3 mm punch attached to a vacuum apparatus.
Peptides to be assayed were 2-fold serially diluted in Dulbecco's PBS (D-PBS) starting from a concentration of approximately 1 mg/mL. Five μL of each dilution were added to each well and the plates were incubated at 37° C. for 3 hours. An overlayer of 10 mL of molten agarose comprising 6% Sabouraud Dextrose broth, 1% agarose, and 10 mM sodium phosphate, pH 7.4, (at approximately 45° C.) was then added and plates were incubated overnight at 37° C. Following this overnight incubation, a dilute Coomassie solution was poured into the plates and allowed to stain for 24 hours.
Clear zones of growth inhibition around each well were measured with calipers. The actual area of growth inhibition (mm^2) was calculated by subtracting the area of the well. Table 1 below sets out the results of the radial diffusion assays for tested peptides in terms of the number of picomoles (pmol) of peptide required to establish a 30 mm^2 area of growth inhibition calculated by PROBIT analysis (e.g., calculated from regression of the linear portion of log-concentration dose-response curve, log pmol/well vs. net area of inhibition).

| Compound | Plate Assay (nmol), crude peptide activity [nmol] |
| --- | --- |
| H-SKVKWL-NH2 [Peptide 312] | >11.20 |
| H-VKWLIQL-NH2 [Peptide 307] | >8.345 |
| H-VKWLIQ-NH2 [compound 314] | 13.497 |

Same assay, conditions: pmoles of peptide added to well to achieve a 30 mm^2 zone, PROBIT analysis; crude or purified (P′) peptide

| Compound | C. albicans pmol/30 mm^2 zone |
| --- | --- |
| CC[C@H](C)[C@H](NC(=O)[C@H](CC(C)C)NC(=O)[C@H](Cc1c[nH]c2ccccc12)NC(=O)CNC(=O)[C@@H](NC(=O)[C@H](CCCCN)NC(=O)[C@H](CO)NC(=O)[C@@H](N)CCCCN)C(C)C)C(=O)N[C@@H](CCC(N)=O)C(=O)N[C@@H](CC(C)C)C(=O)N[C@@H](Cc1cccc2ccccc12)C(=O)N[C@@H](Cc1c[nH]cn1)C(=O)N[C@@H](CCCCN)C(=O)N[C@@H](CCCCN)C(N)=O [XMP.109] (H-KSKVGWLIQL[1Nal]HKK-NH2) | >2839 pmol/30 mm^2 zone |
| H-LIQLFH-NH2 [XMP.317] | b (No detectable activity up to 5 μg/well) |
| H-KSKVGWLIALFHKK-NH2 [XMP.39] | 1792 pmol/30 mm^2 zone |
| CC[C@H](C)[C@H](NC(=O)[C@H](CC(C)C)NC(=O)[C@@H](Cc1c[nH]c2ccccc12)NC(=O)CNC(=O)[C@@H](NC(=O)[C@H](CCCCN)NC(=O)[C@H](CO)NC(=O)[C@@H](N)CCCCN)C(C)C)C(=O)N[C@@H](CCC(N)=O)C(=O)N[C@@H](CC(C)C)C(=O)N[C@@H](Cc1ccccc1)C(=O)N[C@@H](Cc1c[nH]cn1)C(=O)N[C@@H](CCCCN)C(=O)N[C@@H](CCCCN)C(N)=O [XMP.126] (H-KSKVG[dW]LIQLFHKK-NH2) | 1404 pmol/30 mm^2 zone |
| CC[C@H](C)[C@H](NC(=O)[C@H](CC(C)C)NC(=O)[C@H](Cc1cccc2ccccc12)NC(=O)CNC(=O)[C@@H](NC(=O)[C@H](CCCCN)NC(=O)[C@H](CO)NC(=O)[C@@H](N)CCCCN)C(C)C)C(=O)N[C@@H](CCC(N)=O)C(=O)N[C@@H](CC(C)C)C(=O)N[C@@H](Cc1c[nH]c2ccccc12)C(=O)N[C@@H](Cc1c[nH]cn1)C(=O)N[C@@H](CCCCN)C(=O)N[C@@H](CCCCN)C(N)=O [XMP.226] (H-KSKVG[1Nal]LIQLWHKK-NH2) | >2,597 pmol/30 mm^2 zone |
| H-SKVKWLIQL-NH2 [XMP.294] | >4,634 pmol/30 mm^2 zone |
| H-KSKVGWLIFLFHKKKSKVGWLIQLFHKK-NH2 [XMP.273] | >2,120 pmol/30 mm^2 zone |
| CC[C@H](C)[C@H](NC(=O)[C@H](CC(C)C)NC(=O)[C@H](CC1CCCCC1)NC(=O)CNC(=O)[C@@H](NC(=O)[C@H](CCCCN)NC(=O)[C@H](CO)NC(=O)[C@@H](N)CCCCN)C(C)C)C(=O)N[C@@H](CCC(N)=O)C(=O)N[C@@H](CC(C)C)C(=O)N[C@@H](Cc1ccccc1)C(=O)N[C@@H](Cc1c[nH]cn1)C(=O)N[C@@H](CCCCN)C(=O)N[C@@H](CCCCN)C(N)=O [XMP.144] (H-KSKVG[Cha]LIQLFHKK-NH2) | 695 pmol/30 mm^2 zone |
| H-LIQLFHKK-NH2 [XMP.304] | >8,290 pmol/30 mm^2 zone |
| XMP.382: K - K - L - L - Q - L - L - K - K (SEQ ID NO:213) (KKLLQLLKK) | 1,437 pmol/30 mm^2 zone |
| H-KSKVGWLIQLFHKKKSKVGWLILLFHKK-NH2 [XMP.271] | >1,995 pmol/30 mm^2 zone |
| H-SKVKWLI-NH2 [XMP.305] | >10,228 pmol/30 mm^2 zone |
| XMP.383: K - K - L - L - L - Q - L - K - K (SEQ ID NO:214) (KKLLLQLKK) | 473 pmol/30 mm^2 zone |
| CC[C@H](C)[C@H](NC(=O)[C@H](CC(C)C)NC(=O)[C@H](Cc1c[nH]c2ccccc12)NC(=O)[C@H](Cc1ccc(N)cc1)NC(=O)[C@@H](NC(=O)[C@H](CCCCN)NC(=O)[C@H](CO)NC(=O)[C@@H](N)CCCCN)C(C)C)C(=O)N[C@@H](CCC(N)=O)C(=O)N[C@@H](CC(C)C)C(=O)N[C@@H](Cc1ccccc1)C(=O)N[C@@H](Cc1cccc2ccccc12)C(=O)N[C@@H](CCCCN)C(=O)N[C@@H](CCCCN)C(N)=O [XMP.233] (H-KSKV[Phe(4-NH2)]WLIQLF[1Nal]KK-NH2) | b (No detectable activity up to 5 μg/well) |
| H-KSKVGWLIQLFHKKKSKVGWLIQLFHKK-NH2 [XMP.29] | >1469 pmol/30 mm^2 zone |
| H-KSKVGWLIQLFHKKKSKVGWLIFLFHKK-NH2 [XMP.274] | >2,457 pmol/30 mm^2 zone |
| H-KSKVWLIQLFHKK-NH2 [XMP.11] | 645 pmol/30 mm^2 zone |
| H-KSKVKWLIKLFFKFKSKVKWLIKLFFKF-NH2 [XMP.101] | >1040 pmol/30 mm^2 zone |
| H-KSKVGWLIKLFHKK-NH2 [XMP.92] | 299 pmol/30 mm^2 zone |
| CC[C@H](C)[C@H](NC(=O)[C@H](CC(C)C)NC(=O)[C@H](Cc1c[nH]c2ccccc12)NC(=O)CNC(=O)[C@@H](NC(=O)[C@H](CCCCN)NC(=O)[C@H](CO)NC(=O)[C@@H](N)CCCCN)C(C)C)C(=O)N[C@@H](CCC(N)=O)C(=O)N[C@@H](Cc1cccc2ccccc12)C(=O)N[C@@H](Cc1ccccc1)C(=O)N[C@@H](Cc1c[nH]cn1)C(=O)N[C@@H](CCCCN)C(=O)N[C@@H](Cc1cccc2ccccc12)C(N)=O [XMP.227] (H-KSKVGWLIQ[1Nal]FHK[1Nal]-NH2) | >2,365 pmol/30 mm^2 zone |
| H-KSKVGWLIQLFWKK-NH2 [XMP.107] | >2796 pmol/30 mm^2 zone |
| CC[C@H](C)[C@H](NC(=O)[C@H](CC(C)C)NC(=O)[C@H](Cc1c[nH]c2ccccc12)NC(=O)[C@@H](N)CCCCN)C(=O)N[C@@H](CCC(N)=O)C(=O)N[C@@H](CC(C)C)C(=O)N[C@@H](Cc1ccccc1)C(=O)N[C@@H](Cc1c[nH]cn1)C(=O)N[C@@H](CCCCN)C(=O)N[C@@H](CCCCN)C(N)=O [XMP.293] | 1,156 pmol/30 mm^2 zone |
| H-KSKVGWLIQLFFKK-NH2 [XMP.94] | >923 pmol/30 mm^2 zone |
| CC[C@H](C)[C@H](NC(=O)[C@H](CC(C)C)NC(=O)CCCNC(=O)CNC(=O)[C@@H](NC(=O)[C@H](CCCCN)NC(=O)[C@H](CO)NC(=O)[C@@H](N)CCCCN)C(C)C)C(=O)N[C@@H](CCC(N)=O)C(=O)N[C@@H](CC(C)C)C(=O)N[C@@H](Cc1ccccc1)C(=O)N[C@@H](Cc1c[nH]cn1)C(=O)N[C@@H](CCCCN)C(=O)N[C@@H](CCCCN)C(N)=O [XMP.256] (H-KSKVG[GABA]LIQLFHKK-NH2) | b (No detectable activity up to 5 μg/well) |
| CC[C@H](C)[C@H](NC(=O)[C@H](CC(C)C)NC(=O)[C@H](Cc1c[nH]c2ccccc12)NC(=O)[C@H](Cc1ccc(N)cc1)NC(=O)[C@@H](NC(=O)[C@H](CCCCN)NC(=O)[C@H](CO)NC(=O)[C@@H](N)CCCCN)C(C)C)C(=O)N[C@@H](CCC(N)=O)C(=O)N[C@@H](CC(C)C)C(=O)N[C@@H](Cc1ccccc1)C(=O)N[C@@H](Cc1c[nH]cn1)C(=O)N[C@@H](CCCCN)C(=O)N[C@@H](Cc1cccc2ccccc12)C(N)=O [XMP.229] | b (No detectable activity up to 5 μg/well) |
| H-WLIQLK-NH2 [XMP.321] | >5,851 pmol/30 mm^2 zone |
| CC[C@H](C)[C@H](NC(=O)[C@H](CC(C)C)NC(=O)[C@@H](N)Cc1c[nH]c2ccccc12)C(=O)N[C@@H](CCC(N)=O)C(=O)N[C@@H](CC(C)C)C(=O)N[C@@H](Cc1ccccc1)C(=O)N[C@@H](Cc1c[nH]cn1)C(=O)N[C@@H](CCCCN)C(N)=O [XMP.303] | >4,694 pmol/30 mm^2 zone |
| CC[C@H](C)[C@H](NC(=O)[C@H](CC(C)C)NC(=O)[C@H](Cc1cccc2ccccc12)NC(=O)[C@H](Cc1ccc(N)cc1)NC(=O)[C@@H](NC(=O)[C@H](CCCCN)NC(=O)[C@H](CO)NC(=O)[C@@H](N)CCCCN)C(C)C)C(=O)N[C@@H](CCC(N)=O)C(=O)N[C@@H](CC(C)C)C(=O)N[C@@H](Cc1ccccc1)C(=O)N[C@@H](Cc1c[nH]cn1)C(=O)N[C@@H](CCCCN)C(=O)N[C@@H](CCCCN)C(N)=O [XMP.225] (H-KSKV[Phe(4-NH2)][1Nal]LIQLFHKK-NH2) | >2,506 pmol/30 mm^2 zone |
| H-KSKVKFLIKLFHKK-NH2 [XMP.283] | 1,336 pmol/30 mm^2 zone |

Same assay, conditions: pmoles of peptide added to well to achieve a 30 mm^2 zone, PROBIT analysis; crude or purified (P′) peptide; listed as XMP.225P′

| Compound | C. albicans pmol/30 mm^2 zone |
| --- | --- |
| CC[C@H](C)[C@H](NC(=O)[C@H](CC(C)C)NC(=O)[C@H](Cc1cccc2ccccc12)NC(=O)[C@H](Cc1ccc(N)cc1)NC(=O)[C@@H](NC(=O)[C@H](CCCCN)NC(=O)[C@H](CO)NC(=O)[C@@H](N)CCCCN)C(C)C)C(=O)N[C@@H](CCC(N)=O)C(=O)N[C@@H](CC(C)C)C(=O)N[C@@H](Cc1ccccc1)C(=O)N[C@@H](Cc1c[nH]cn1)C(=O)N[C@@H](CCCCN)C(=O)N[C@@H](CCCCN)C(N)=O [XMP.225] (H-KSKV[Phe(4-NH2)][1Nal]LIQLFHKK-NH2) | >2,736 pmol/30 mm^2 zone |

Same assay, conditions: pmoles of peptide added to well to achieve a 30 mm^2 zone, PROBIT analysis; crude or purified (P′) peptide; listed as XMP.226P′

| Compound | C. albicans pmol/30 mm^2 zone |
| --- | --- |
| CC[C@H](C)[C@H](NC(=O)[C@H](CC(C)C)NC(=O)[C@H](Cc1cccc2ccccc12)NC(=O)CNC(=O)[C@@H](NC(=O)[C@H](CCCCN)NC(=O)[C@H](CO)NC(=O)[C@@H](N)CCCCN)C(C)C)C(=O)N[C@@H](CCC(N)=O)C(=O)N[C@@H](CC(C)C)C(=O)N[C@@H](Cc1c[nH]c2ccccc12)C(=O)N[C@@H](Cc1c[nH]cn1)C(=O)N[C@@H](CCCCN)C(=O)N[C@@H](CCCCN)C(N)=O [XMP.226] (H-KSKVG[1Nal]LIQLWHKK-NH2) | >2,895 pmol/30 mm^2 zone |

Same assay, conditions: pmoles of peptide added to well to achieve a 30 mm^2 zone, PROBIT analysis; crude or purified (P′) peptide; listed as XMP.293P′

| Compound | C. albicans pmol/30 mm^2 zone [pmol/30 mm^2 zone] |
| --- | --- |
| CC[C@H](C)[C@H](NC(=O)[C@H](CC(C)C)NC(=O)[C@H](Cc1c[nH]c2ccccc12)NC(=O)[C@@H](N)CCCCN)C(=O)N[C@@H](CCC(N)=O)C(=O)N[C@@H](CC(C)C)C(=O)N[C@@H](Cc1ccccc1)C(=O)N[C@@H](Cc1c[nH]cn1)C(=O)N[C@@H](CCCCN)C(=O)N[C@@H](CCCCN)C(N)=O [XMP.293] | 215 |

Same assay, conditions: pmoles of peptide added to well to achieve a 30 mm^2 zone, PROBIT analysis; crude or purified (P′) peptide; listed as XMP.303P′

| Compound | C. albicans pmol/30 mm^2 zone |
| --- | --- |
| CC[C@H](C)[C@H](NC(=O)[C@H](CC(C)C)NC(=O)[C@@H](N)Cc1c[nH]c2ccccc12)C(=O)N[C@@H](CCC(N)=O)C(=O)N[C@@H](CC(C)C)C(=O)N[C@@H](Cc1ccccc1)C(=O)N[C@@H](Cc1c[nH]cn1)C(=O)N[C@@H](CCCCN)C(N)=O [XMP.303] | 1,307 pmol/30 mm^2 zone |
